Test results: ChEMBL document CHEMBL4354834 (J Med Chem, 2020)

Experiments:
[1] = Metabolic stability in human liver microsomes assessed as half life; type: ADME, Microsome
[2] = Metabolic stability in dog liver microsomes assessed as half life; type: ADME, Canis lupus familiaris, Microsome
Coagulation factor IX = Coagulation factor IX (Homo sapiens, UniProt P00740); assay: Inhibition of activated human coagulation factor IX using 7-amino-4-methylcoumarin as substrate by spectrofluorimetry
[3] = Permeability of the compound across apical side to basolateral side in human Caco2 cells; type: ADME, cell-based; conditions: Caco-2, read-out: permeability
Prothrombin = Prothrombin (Homo sapiens, UniProt P00734); assay: Inhibition of human alpha-thrombin using pyro-Glu-Pro-Arg-pNA as substrate by spectrophotometry
Trypsin = Trypsin (Homo sapiens, UniProt P07477+P07478+P35030); assay: Inhibition of human trypsin using N-benzoyl-Ile-Glu-OH-OMe-Gly-Arg-pNA as substrate by spectrophotometry; type: protein assay
Coagulation factor X = Coagulation factor X (Homo sapiens, UniProt P00742); assay: Inhibition of activated human coagulation factor X using N-benzoyl-Ile-Glu-OH-OMe-Gly-Arg-pNA as substrate by spectrophotometry
Plasma kallikrein = Plasma kallikrein (Homo sapiens, UniProt P03952); assay: Inhibition of human kallikrein using H-(D)-Pro-Phe-Arg-pNA as substrate by spectrophotometry
[4] = Metabolic stability in cynomolgus monkey liver microsomes assessed as half life; type: ADME, Macaca fascicularis, Microsome
[5] = Permeability of the compound across basolateral side to apical side in human Caco2 cells; type: ADME, cell-based; conditions: Caco-2, read-out: permeability
Coagulation factor VII = molecular target: T1, Coagulation factor VII (Homo sapiens, UniProt P08709); assay: Inhibition of activated human coagulation factor VII using H-(D)-Ile-Pro-Arg-pNA as substrate by spectrophotometry
T1 sequence (P08709 whole entry): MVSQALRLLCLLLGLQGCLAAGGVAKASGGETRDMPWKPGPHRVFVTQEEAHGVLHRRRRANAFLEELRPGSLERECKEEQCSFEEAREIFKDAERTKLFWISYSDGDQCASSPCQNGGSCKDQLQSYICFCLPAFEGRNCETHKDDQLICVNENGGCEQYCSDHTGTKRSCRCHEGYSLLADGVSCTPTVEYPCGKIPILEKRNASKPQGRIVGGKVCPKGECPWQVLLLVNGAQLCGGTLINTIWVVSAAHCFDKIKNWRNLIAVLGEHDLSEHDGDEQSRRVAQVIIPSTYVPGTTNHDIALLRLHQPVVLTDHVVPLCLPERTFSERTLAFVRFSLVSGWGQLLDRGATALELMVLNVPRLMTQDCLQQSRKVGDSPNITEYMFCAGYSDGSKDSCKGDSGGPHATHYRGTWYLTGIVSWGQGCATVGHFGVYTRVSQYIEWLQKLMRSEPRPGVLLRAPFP

[6] = molecular target: Urokinase-type plasminogen activator (Homo sapiens, UniProt P00749); assay: Inhibition of activated human urokinase using pyro-Glu-Gly-Arg-pNA as substrate by spectrophotometry
Coagulation factor XII = molecular target: T2, Coagulation factor XII (Homo sapiens, UniProt P00748); assay: Inhibition of activated human coagulation factor XII using H-(D)-CHT-Gly-Arg-pNA as substrate by spectrophotometry
T2 sequence (P00748 whole entry): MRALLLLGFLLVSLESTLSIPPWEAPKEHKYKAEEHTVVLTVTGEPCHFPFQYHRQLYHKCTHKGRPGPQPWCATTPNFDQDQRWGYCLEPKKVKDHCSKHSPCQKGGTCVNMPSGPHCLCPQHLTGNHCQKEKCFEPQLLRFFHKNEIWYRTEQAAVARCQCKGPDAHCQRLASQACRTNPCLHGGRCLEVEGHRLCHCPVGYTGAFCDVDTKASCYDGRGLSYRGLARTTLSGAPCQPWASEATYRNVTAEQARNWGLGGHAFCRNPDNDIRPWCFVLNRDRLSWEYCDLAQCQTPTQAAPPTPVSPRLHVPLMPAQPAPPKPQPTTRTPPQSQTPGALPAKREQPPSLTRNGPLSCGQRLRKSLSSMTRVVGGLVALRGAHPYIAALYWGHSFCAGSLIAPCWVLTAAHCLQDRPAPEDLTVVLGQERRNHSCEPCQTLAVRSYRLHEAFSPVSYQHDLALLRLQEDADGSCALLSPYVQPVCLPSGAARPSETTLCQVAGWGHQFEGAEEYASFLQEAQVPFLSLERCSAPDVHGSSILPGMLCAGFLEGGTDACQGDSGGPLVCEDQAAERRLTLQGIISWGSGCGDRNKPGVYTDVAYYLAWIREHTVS

Plasminogen = Plasminogen (Homo sapiens, UniProt P00747); assay: Inhibition of human plasmin using H-(D)-Val-Leu-Lys-pNA as substrate by spectrophotometry
[7] = molecular target: Vitamin K-dependent protein C (Homo sapiens, UniProt P04070); assay: Inhibition of activated human protein C using pyro-Glu-Pro-Arg-pNA as substrate by spectrophotometry
[8] = Metabolic stability in rat liver microsomes assessed as half life; type: ADME, Microsome

Chain of Vitamin K-dependent protein C (P04070 43-197 limits assumed): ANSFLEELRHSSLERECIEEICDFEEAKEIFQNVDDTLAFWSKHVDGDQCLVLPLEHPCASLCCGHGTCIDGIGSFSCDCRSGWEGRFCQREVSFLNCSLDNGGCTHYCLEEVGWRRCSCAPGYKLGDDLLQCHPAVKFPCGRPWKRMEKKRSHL
Chain of Vitamin K-dependent protein C (P04070 212-461 limits assumed): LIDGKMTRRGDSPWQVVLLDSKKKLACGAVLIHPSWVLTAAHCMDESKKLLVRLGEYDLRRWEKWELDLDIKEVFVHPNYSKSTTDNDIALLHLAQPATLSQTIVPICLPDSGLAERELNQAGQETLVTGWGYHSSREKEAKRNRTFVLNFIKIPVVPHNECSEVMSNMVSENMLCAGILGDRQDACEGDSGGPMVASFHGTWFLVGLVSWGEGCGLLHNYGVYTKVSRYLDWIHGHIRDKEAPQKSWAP
Chain of Plasminogen (P00747 97-580 limits assumed): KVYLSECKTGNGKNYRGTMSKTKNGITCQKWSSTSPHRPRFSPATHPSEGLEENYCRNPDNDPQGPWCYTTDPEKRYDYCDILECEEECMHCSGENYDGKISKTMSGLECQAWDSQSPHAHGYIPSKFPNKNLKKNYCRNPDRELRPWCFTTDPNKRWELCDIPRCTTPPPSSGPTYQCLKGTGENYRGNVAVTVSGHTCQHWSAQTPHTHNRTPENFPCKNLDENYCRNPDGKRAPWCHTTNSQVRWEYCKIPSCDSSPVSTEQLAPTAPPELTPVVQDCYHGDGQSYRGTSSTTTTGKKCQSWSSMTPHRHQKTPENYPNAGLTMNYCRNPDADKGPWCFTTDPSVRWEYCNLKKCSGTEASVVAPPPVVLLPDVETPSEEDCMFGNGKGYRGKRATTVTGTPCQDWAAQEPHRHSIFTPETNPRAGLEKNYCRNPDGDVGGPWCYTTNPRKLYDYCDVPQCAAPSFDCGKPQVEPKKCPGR
Chain of Plasminogen (P00747 581-810 limits assumed): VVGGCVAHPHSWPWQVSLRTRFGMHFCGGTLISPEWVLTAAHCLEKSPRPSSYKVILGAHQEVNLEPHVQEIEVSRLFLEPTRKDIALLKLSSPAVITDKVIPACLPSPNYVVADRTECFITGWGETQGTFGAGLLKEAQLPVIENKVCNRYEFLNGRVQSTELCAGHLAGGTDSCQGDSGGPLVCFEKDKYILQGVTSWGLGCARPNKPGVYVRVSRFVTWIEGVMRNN
Chain of Coagulation factor IX (P00740 47-191 limits assumed): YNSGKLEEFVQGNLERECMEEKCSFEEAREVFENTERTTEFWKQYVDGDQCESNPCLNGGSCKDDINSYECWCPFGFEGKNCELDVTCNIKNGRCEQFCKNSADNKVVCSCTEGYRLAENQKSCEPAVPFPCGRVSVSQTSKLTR
Chain of Coagulation factor IX (P00740 227-461 limits assumed): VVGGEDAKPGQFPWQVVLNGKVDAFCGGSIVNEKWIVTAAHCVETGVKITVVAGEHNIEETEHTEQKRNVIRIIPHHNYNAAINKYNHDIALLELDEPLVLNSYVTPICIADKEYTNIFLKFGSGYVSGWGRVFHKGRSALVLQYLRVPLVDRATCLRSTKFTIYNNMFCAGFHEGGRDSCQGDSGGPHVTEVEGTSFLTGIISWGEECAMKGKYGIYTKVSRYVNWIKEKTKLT
Chain of Plasma kallikrein (P03952 20-390 limits assumed): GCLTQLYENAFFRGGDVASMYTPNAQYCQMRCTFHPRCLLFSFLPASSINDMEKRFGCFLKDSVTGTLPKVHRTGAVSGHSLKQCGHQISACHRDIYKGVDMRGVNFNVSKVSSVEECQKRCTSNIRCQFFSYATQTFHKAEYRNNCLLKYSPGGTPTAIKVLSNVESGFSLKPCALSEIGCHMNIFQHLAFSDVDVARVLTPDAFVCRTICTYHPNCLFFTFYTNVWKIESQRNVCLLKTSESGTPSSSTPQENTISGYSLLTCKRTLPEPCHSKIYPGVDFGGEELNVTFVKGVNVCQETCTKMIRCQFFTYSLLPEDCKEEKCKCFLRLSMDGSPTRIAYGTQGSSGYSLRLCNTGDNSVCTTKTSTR
Chain of Plasma kallikrein (P03952 391-638 limits assumed): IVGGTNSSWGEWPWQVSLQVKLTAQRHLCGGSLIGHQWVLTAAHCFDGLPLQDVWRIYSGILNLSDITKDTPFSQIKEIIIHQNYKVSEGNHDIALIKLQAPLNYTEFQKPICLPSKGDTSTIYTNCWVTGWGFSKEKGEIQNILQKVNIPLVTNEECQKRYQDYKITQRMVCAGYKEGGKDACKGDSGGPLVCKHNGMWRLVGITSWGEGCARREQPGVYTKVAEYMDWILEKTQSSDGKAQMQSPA
Chain of Coagulation factor X (P00742 41-179 limits assumed): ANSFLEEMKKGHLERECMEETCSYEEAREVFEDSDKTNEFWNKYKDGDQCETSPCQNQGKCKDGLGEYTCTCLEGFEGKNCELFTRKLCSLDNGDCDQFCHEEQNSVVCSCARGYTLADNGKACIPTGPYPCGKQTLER
Chain of Coagulation factor X (P00742 235-488 limits assumed): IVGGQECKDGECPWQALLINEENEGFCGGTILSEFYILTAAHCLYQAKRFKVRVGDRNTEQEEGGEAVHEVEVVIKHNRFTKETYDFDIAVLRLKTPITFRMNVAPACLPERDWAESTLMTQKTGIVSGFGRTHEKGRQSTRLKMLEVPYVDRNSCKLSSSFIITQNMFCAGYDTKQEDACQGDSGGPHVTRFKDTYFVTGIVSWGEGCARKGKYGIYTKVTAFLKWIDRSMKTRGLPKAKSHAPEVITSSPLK

COC(=O)Nc1ccc2c(c1)NC(=O)[C@H](C)CCC[C@H](NC(=O)c1ncn(-c3cccc(Cl)c3F)c1C)c1cc-2ccn1.Cl.Cl
half-life [1]: 0.917 h
half-life [2]: 1.22 h
Ki (Coagulation factor IX): > 27.1 µM
Papp A→B [3]: < 1.5 ×10⁻⁶ cm/s
Ki (Prothrombin): > 11.5 µM
Ki (Trypsin): > 10 µM
Ki (Coagulation factor X): > 13.3 µM
Ki (Plasma kallikrein): 0.0063 µM
half-life [4]: 0.8 h
Papp B→A [5]: 36.7 ×10⁻⁶ cm/s
Ki (Coagulation factor VII): > 13.3 µM
Ki [6]: > 15.1 µM
Ki (Coagulation factor XII): 2.53 µM
Ki (Plasminogen): > 15 µM
Ki [7]: > 21.5 µM
half-life [8]: 1.13 h
